Experiment: In-vitro release of β-estradiol from loaded zeogrid in simulated body fluid (HPLC)
Format: physicochemical
Settings: 10 mg loaded zeogrid in 20 ml SBF, room temperature, continuous stirring
Protocol: Loading of the zeogrid sample with β-estradiol proceeds as follows. 50 mg β-estradiol is dissolved in 100 ml methylenechloride. 500 mg of zeogrid is suspended in the solution. Everything is stirred during 24 hours in a closed container. After 24 hours, the container is opened and the methylenechloride is evaporated at room temperature. The resulting powder is further dried and kept during 24 hours under reduced pressure to remove the solvent.
Release of β-estradiol from zeogrids. Simulated body fluid (SBF) was used as dissolution medium. SBF was prepared by first dissolving 1% SLS (Sodium lauryl sulphate) and 0.90% NaCl in distilled water. The solution was mixed with ethanol in a volume ratio solution:ethanol of 24:1.
The in-vitro release experiments were carried out at room temperature by dispersing 10 mg quantities of the loaded zeogrid into 20 ml quantities of SBF. In order to avoid limitations of the delivery rate by external diffusion constraints, continuous stirring is maintained. The release profile was obtained by measuring drug concentration in the fluid after different times by means of HPLC.

C[C@]12CC[C@@H]3c4ccc(O)cc4CC[C@H]3[C@@H]1CC[C@@H]2O [β-estradiol]
Time after which release of β-estradiol from zeogrid is completed: 30 min

Reference: patent publication US8512734B2, “Biocompatible coating of medical devices” (Katholieke Universiteit Leuven, K.U.Leuven R&D, priority 2004, dated 2013)
